Measured values: PMC5272797 (Biochemical pharmacology, 2016)

What was measured:
Format in all cases: biochemical
EGFR L861Q = EGFR L861Q (Homo sapiens, UniProt P00533, L861Q); assay: Z'-LYTE Tyr4 peptide kinase assay, single dose […]; details: read-out: Mean inhibition at 10 μM (%)
EGFR L858R = EGFR L858R (Homo sapiens, UniProt P00533, L858R); assay: Z'-LYTE Tyr4 peptide kinase assay, single dose […]; details: read-out: Mean inhibition at 10 μM (%)
EGFR (ErbB1) = EGFR (ErbB1) (Homo sapiens, UniProt P00533); assay: Z'-LYTE Tyr4 peptide kinase assay, 10-point dose-response
EGFR (ErbB1), sequence (P00533 668-1210): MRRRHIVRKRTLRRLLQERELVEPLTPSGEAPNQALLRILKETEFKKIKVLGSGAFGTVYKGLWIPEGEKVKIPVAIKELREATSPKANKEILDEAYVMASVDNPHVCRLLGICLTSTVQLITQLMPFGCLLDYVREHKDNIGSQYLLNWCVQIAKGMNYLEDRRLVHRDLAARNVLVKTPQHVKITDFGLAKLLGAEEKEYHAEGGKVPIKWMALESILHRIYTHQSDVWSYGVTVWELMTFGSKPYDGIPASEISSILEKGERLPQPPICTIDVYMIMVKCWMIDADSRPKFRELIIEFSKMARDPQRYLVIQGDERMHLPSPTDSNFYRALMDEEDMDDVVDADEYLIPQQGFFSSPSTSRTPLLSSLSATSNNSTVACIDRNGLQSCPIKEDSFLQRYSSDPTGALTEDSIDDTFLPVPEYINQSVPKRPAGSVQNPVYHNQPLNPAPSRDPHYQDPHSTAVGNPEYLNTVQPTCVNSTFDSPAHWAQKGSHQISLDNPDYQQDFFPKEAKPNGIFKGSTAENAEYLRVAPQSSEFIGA

EGFR T790M = EGFR T790M (Homo sapiens, UniProt P00533, T790M); assay: Z'-LYTE Tyr4 peptide kinase assay, single dose […]; details: read-out: Mean inhibition at 10 μM (%)
EGFR T790M, sequence (P00533 668-1210 T790M limits assumed): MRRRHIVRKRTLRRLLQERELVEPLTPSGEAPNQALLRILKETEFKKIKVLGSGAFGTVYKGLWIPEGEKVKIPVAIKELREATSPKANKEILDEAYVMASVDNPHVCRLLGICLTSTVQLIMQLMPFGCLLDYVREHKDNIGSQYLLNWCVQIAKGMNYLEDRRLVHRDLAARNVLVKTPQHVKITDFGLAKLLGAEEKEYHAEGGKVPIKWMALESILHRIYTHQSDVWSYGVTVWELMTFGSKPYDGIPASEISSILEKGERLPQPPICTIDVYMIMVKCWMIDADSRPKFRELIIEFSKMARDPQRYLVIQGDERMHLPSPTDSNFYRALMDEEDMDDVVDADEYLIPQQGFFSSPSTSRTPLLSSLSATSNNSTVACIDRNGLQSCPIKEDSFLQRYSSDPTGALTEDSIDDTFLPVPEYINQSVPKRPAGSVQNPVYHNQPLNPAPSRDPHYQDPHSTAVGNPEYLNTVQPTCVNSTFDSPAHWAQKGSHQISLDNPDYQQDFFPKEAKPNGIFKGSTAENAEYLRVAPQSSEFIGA

EGFR L861Q, sequence (P00533 668-1210 L861Q limits assumed): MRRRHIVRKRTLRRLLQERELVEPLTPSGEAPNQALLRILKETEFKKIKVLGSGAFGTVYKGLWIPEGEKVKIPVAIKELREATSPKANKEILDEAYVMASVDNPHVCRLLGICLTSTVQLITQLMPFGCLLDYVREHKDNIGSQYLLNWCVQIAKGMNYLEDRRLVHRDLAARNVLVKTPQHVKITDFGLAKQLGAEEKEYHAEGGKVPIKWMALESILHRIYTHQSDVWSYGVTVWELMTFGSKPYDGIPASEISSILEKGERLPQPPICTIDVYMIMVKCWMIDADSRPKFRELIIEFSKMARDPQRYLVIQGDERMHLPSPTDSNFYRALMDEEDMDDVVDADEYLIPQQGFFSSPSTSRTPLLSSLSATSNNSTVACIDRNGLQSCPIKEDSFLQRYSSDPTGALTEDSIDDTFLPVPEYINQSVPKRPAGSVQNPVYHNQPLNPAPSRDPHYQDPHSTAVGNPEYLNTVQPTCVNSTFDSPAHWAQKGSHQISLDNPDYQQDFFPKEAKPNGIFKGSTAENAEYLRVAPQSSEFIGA
EGFR L858R, sequence (P00533 668-1210 L858R limits assumed): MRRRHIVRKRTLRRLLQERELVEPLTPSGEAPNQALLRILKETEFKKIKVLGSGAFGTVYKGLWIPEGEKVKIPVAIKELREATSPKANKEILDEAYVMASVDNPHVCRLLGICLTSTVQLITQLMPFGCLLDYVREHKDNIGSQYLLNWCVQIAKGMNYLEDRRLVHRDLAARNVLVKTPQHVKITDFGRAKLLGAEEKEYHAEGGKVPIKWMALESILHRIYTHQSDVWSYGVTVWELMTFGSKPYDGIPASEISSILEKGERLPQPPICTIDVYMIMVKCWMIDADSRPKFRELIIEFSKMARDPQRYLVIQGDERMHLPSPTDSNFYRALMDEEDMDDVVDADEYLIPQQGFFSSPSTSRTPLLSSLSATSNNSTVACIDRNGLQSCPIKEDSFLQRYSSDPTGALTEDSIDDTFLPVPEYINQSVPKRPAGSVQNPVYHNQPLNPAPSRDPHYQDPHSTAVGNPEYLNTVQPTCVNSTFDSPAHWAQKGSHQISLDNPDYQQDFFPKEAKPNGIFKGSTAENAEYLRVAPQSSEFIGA

inhibition at 10 µM (EGFR L861Q): 93%
inhibition at 10 µM (EGFR L858R): 98%
IC50 (EGFR (ErbB1)): 570 nM
inhibition at 10 µM (EGFR T790M): 93%
SMILES: CCCC(=O)O[C@]1(C)CC[C@H](C(C)C)[C@@H]2[C@H]1[C@H]1C[C@](C)(O)[C@@H](O)CC[C@@](C)(OC(C)=O)[C@@H]2O1 [compound 1, Pachycladin A]
